pIC50: −log10 of the molar value.
Experiments:
MYC = MYC RPL19 QuantiGene assay in MV-4-11 cells; assay type: cell-based; settings: Homo sapiens, MV4-11, compound 4 hours
From the text: MYC RPL19 QuantiGene assay in MV-4-11 Cells

CBP = CBP (Homo sapiens (Human), UniProt Q92793); experiment: CBP TR-FRET binding assay; settings: His/Flag tagged CBP 4 nM, biotin-ligand 60 nM; read-out: CBP HTRF IC50;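 further: displacement of a biotinylated small-molecule ligand from purified recombinant CBP read by TR-FRET, DMSO-only wells as control, IC50 from nonlinear curve fit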
Sequence of CBP (Q92793 whole entry): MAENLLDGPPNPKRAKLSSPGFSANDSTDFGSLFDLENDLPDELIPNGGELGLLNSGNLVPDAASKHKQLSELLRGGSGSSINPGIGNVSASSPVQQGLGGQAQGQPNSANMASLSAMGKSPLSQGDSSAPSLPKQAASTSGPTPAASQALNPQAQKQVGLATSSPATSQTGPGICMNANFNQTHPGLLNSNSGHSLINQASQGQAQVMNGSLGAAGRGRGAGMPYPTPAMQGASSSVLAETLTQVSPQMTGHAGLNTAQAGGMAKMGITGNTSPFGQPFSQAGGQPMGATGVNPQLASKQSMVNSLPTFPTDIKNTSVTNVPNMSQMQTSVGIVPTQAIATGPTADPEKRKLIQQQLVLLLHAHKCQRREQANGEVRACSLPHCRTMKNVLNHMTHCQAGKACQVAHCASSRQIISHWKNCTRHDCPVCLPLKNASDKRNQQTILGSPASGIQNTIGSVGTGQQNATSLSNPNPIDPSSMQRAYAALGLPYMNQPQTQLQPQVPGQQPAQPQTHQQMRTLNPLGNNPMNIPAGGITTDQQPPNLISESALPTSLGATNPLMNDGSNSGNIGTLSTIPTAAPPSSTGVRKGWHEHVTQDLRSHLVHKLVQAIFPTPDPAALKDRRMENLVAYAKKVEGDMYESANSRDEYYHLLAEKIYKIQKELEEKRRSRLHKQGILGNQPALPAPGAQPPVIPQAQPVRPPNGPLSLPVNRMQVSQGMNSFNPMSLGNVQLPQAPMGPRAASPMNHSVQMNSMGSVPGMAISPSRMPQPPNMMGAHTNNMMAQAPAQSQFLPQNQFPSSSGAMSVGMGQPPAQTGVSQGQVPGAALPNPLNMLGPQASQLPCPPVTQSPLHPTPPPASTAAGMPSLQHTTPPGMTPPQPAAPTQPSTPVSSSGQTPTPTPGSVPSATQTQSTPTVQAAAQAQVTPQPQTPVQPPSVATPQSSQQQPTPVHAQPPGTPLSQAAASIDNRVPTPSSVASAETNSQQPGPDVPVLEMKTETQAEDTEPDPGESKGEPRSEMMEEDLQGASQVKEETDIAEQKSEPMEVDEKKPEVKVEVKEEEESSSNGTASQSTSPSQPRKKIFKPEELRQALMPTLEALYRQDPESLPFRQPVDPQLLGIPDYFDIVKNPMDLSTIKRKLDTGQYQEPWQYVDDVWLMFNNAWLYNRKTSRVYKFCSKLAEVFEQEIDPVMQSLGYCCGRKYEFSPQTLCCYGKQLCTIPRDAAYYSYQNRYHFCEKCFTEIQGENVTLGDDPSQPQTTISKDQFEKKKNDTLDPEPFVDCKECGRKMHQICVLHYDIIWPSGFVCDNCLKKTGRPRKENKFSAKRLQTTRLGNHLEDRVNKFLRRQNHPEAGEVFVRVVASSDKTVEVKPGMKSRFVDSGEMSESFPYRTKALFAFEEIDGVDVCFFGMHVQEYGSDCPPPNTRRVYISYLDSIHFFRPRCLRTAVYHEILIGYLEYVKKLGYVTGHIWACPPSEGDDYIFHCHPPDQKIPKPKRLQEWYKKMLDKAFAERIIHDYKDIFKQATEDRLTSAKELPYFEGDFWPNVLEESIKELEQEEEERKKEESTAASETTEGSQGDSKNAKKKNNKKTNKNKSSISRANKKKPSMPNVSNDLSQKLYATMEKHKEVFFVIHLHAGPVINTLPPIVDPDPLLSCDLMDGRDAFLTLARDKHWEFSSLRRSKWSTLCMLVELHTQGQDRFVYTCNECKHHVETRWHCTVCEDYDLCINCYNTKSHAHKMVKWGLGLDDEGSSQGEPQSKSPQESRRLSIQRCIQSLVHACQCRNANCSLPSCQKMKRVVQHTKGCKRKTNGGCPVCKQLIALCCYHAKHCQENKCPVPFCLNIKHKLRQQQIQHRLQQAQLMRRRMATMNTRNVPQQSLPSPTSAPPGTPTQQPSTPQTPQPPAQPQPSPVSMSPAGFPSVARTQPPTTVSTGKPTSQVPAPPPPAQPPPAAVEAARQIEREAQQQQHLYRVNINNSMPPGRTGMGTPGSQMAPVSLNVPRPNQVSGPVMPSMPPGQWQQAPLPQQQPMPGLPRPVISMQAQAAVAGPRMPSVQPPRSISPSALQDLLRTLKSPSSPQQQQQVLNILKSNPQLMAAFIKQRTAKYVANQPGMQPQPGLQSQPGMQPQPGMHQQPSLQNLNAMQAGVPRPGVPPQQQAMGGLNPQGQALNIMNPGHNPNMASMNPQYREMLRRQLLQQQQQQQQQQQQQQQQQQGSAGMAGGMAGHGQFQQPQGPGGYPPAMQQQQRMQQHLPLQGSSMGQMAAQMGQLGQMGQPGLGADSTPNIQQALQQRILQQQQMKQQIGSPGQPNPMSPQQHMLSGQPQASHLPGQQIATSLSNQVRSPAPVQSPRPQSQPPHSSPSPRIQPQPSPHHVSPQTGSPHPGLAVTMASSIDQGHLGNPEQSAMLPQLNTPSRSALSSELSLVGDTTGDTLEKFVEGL
Procedure: IC50 Measurements for Inhibitors Using CBP TR FRET Binding Assay
His/Flag epitope tagged CBP was cloned, expressed, and purified to homogeneity. CBP binding and inhibition was assessed by monitoring the engagement of a biotinylated small molecule compound with the target using the TR-FRET assay technology (Perkin-Elmer). Specifically, in a 384 well ProxiPlate CBP (4 nM final) was combined with biotin-ligand (60 nM final) in 50 mM HEPES (pH 7.5), 50 mM NaCl, 1 mM TCEP, 0.01% (w/v) BSA, and 0.008% (w/v) Brij-35 either in the presence of DMSO (final 0.2% DMSO) or compound dilution series in DMSO. […] After twenty minutes of equilibration, the plates were read on an Envision instrument and IC50S calculated using a four parameter non-linear curve fit.

Compound	pIC50 (MYC)	pIC50 (CBP)
CNC(=O)c1cn(C)c2ccc(N3CCCc4cc(-c5cnn(C)c5)c(C(F)F)cc43)cc12 [Example 50, 5-(7-(difluoromethyl)-6-(1-methyl-1H-pyrazol-4-yl)-3,4-dihydroquinolin-1(2H)-yl)-N,1-dimethyl-1H-indole-3-carboxamide]	6.30	8.05
CNC(=O)c1c[nH]c2ccc(N3CCCc4cc(-c5cnn(C)c5)c(C(F)F)cc43)cc12 [Example 52, 5-(7-(difluoromethyl)-6-(1-methyl-1H-pyrazol-4-yl)-3,4-dihydroquinolin-1(2H)-yl)-N-methyl-1H-indole-3-carboxamide]	5.66	8.05
CNC(=O)c1cn(C)c2c(Cl)cc(N3CCCc4cc(-c5cnn(C)c5)c(C(F)F)cc43)cc12 [Example 54, 7-chloro-5-(7-(difluoromethyl)-6-(1-methyl-1H-pyrazol-4-yl)-3,4-dihydroquinolin-1(2H)-yl)-N,1-dimethyl-1H-indole-3-carboxamide]	5.64	7.23
CNC(=O)c1cn(C)c2ccc(N3CCCc4cc(-c5cnn(C)c5)c(C(F)F)cc43)c(F)c12 [Example 55]	6.94	8.40
CNC(=O)c1cn(C)c2cc(F)c(N3CCCc4cc(-c5cnn(C)c5)c(C(F)F)cc43)cc12 [Example 56]	5.39	8.00
CNC(=O)c1cn(C)c2cc(C)c(N3CCCc4cc(-c5cnn(C)c5)c(C(F)F)cc43)cc12 [Example 57]	6.52	8.05
CNC(=O)c1cn(C)c2ccc(N3CCCc4cc(-c5cnn(C)c5)c(C(F)F)cc43)nc12 [Example 58]	6.74	8.05
CNC(=O)c1cn(C)c2cnc(N3CCCc4cc(-c5cnn(C)c5)c(C(F)F)cc43)cc12 [Example 59]	6.69	8.22
CNC(=O)c1cn(C)c2c(C)cc(N3CCCc4cc(-c5cnn(C)c5)c(C(F)F)cc43)nc12 [Example 60]	6.97	8.05
CNC(=O)c1c[nH]c2c(C(C)C)cc(N3CCCc4cc(-c5cnn(C)c5)c(C(F)F)cc43)cc12 [Example 62, 5-(7-(difluoromethyl)-6-(1-methyl-1H-pyrazol-4-yl)-3,4-dihydroquinolin-1(2H)-yl)-7-isopropyl-N-methyl-1H-indole-3-carboxamide]	7.08	7.92
CNC(=O)c1c[nH]c2c(C(C)C)nc(N3CCCc4cc(-c5cnn(C)c5)c(C(F)F)cc43)cc12 [Example 63]	7.28	8.70
CNC(=O)c1c[nH]c2c(C)nc(N3CCCc4cc(-c5cnn(C)c5)c(C(F)F)cc43)cc12 [Example 64, 5-(7-(difluoromethyl)-6-(1-methyl-1H-pyrazol-4-yl)-3,4-dihydroquinolin-1(2H)-yl)-N,7-dimethyl-1H-pyrrolo[2,3-c]pyridine-3-carboxamide]	6.84	8.70
CNC(=O)c1c[nH]c2ccc(N3CCCc4cc(-c5cnn(C)c5)c(C(F)F)cc43)nc12 [Example 65]	6.82	8.30

More lines, now with the values ahead:

pIC50 (MYC)	pIC50 (CBP)	Compound
7.34	8.40	CNC(=O)c1c[nH]c2c(C)cc(N3CCCc4cc(-c5cnn(C)c5)c(C(F)F)cc43)nc12 [Example 66]
6.45	8.30	CNC(=O)c1c[nH]c2cnc(N3CCCc4cc(-c5cnn(C)c5)c(C(F)F)cc43)cc12 [Example 67]
5.36	7.82	CNC(=O)c1c[nH]c2ncc(N3CCCc4cc(-c5cnn(C)c5)c(C(F)F)cc43)cc12 [Example 68]
7.33	8.40	CNC(=O)c1c[nH]c2ncc(N3CCCc4cc(-c5cnn(C)c5)c(C(F)F)cc43)nc12 [Example 69]
6.11	7.66	CCC(=O)N1CCOc2ccc(N3CCCc4cc(-c5cnn(C)c5)c(C(F)F)cc43)cc2C1 [Example 78, 1-(7-(7-(difluoromethyl)-6-(1-methyl-1H-pyrazol-4-yl)-3,4-dihydroquinolin-1(2H)-yl)-2,3-dihydrobenzo[f][1,4]oxazepin-4(5H)-yl)propan-1-one]
6.75	8.05	CNC(=O)c1ccc2c(c1)c(N1CCCc3cc(-c4cnn(C)c4)c(C(F)F)cc31)nn2C1CCOCC1 [Example 83, 3-(7-(difluoromethyl)-6-(1-methyl-1H-pyrazol-4-yl)-3,4-dihydroquinolin-1(2H)-yl)-N-methyl-1-(tetrahydro-2H-pyran-4-yl)-1H-indazole-5-carboxamide]
7.02	7.49	CN1C(=O)Cc2ccc(N3CCCc4cc(-c5cnn(C)c5)c(C(F)F)cc43)cc21 [Example 90, 6-[7-(difluoromethyl)-6-(1-methylpyrazol-4-yl)-3,4-dihydro-2H-quinolin-1-yl]-1-methyl-indolin-2-one]
6.66	8.05	CC(C)c1cc(N2CCCc3cc(-c4cnn(C)c4)c(C(F)F)cc32)cc2c1n(C)c(=O)n2C [Example 96, 6-(7-(difluoromethyl)-6-(1-methyl-1H-pyrazol-4-yl)-3,4-dihydroquinolin-1(2H)-yl)-4-isopropyl-1,3-dimethyl-1H-benzo[d]imidazol-2(3H)-one]
7.24	8.40	Cn1cc(-c2cc3c(cc2C(F)F)N(c2cc(C4CCOCC4)c4c(c2)n(C)c(=O)n4C)CCC3)cn1 [Example 97, 6-(7-(difluoromethyl)-6-(1-methyl-1H-pyrazol-4-yl)-3,4-dihydroquinolin-1(2H)-yl)-1,3-dimethyl-4-(tetrahydro-2H-pyran-4-yl)-1H-benzo[d]imidazol-2(3H)-one]
7.07	8.40	Cn1cc(-c2cc3c(cc2C(F)F)N(c2cc(C4=CC[S+]([O-])CC4)c4c(c2)n(C)c(=O)n4C)CCC3)cn1 (stereo not shown) [Example 98, 6-(7-(difluoromethyl)-6-(1-methyl-1H-pyrazol-4-yl)-3,4-dihydroquinolin-1(2H)-yl)-1,3-dimethyl-4-(1-oxido-3,6-dihydro-2H-thiopyran-4-yl)-1H-benzo[d]imidazol-2(3H)-one]
6.79	8.00	COc1cc(N2CCCc3cc(-c4cnn(C)c4)c(C(F)F)cc32)cc2c1n(C)c(=O)n2C [Example 100, 6-(7-(difluoromethyl)-6-(1-methyl-1H-pyrazol-4-yl)-3,4-dihydroquinolin-1(2H)-yl)-4-methoxy-1,3-dimethyl-1H-benzo[d]imidazol-2(3H)-one]
6.42	7.80	CNC(=O)c1cn(C)c2c(C)cc(N3CCCc4cc(-c5cnn(C)c5)c(C(F)F)cc43)cc12 [Example 104, 5-(7-(difluoromethyl)-6-(1-methyl-1H-pyrazol-4-yl)-3,4-dihydroquinolin-1(2H)-yl)-N,1,7-trimethyl-1H-indole-3-carboxamide]
7.07	7.96	CNC(=O)c1cn(C)c2c(C3CCOCC3)cc(N3CCCc4cc(-c5cnn(C)c5)c(C(F)F)cc43)cc12 [Example 105, 5-(7-(difluoromethyl)-6-(1-methyl-1H-pyrazol-4-yl)-3,4-dihydroquinolin-1(2H)-yl)-N,1-dimethyl-7-(tetrahydro-2H-pyran-4-yl)-1H-indole-3-carboxamide]
6.83	7.80	C=C(C)c1cc(N2CCCc3cc(-c4cnn(C)c4)c(C(F)F)cc32)cc2c(C(=O)NC)cn(C)c12 [Example 107, 5-(7-(difluoromethyl)-6-(1-methyl-1H-pyrazol-4-yl)-3,4-dihydroquinolin-1(2H)-yl)-N,1-dimethyl-7-(prop-1-en-2-yl)-1H-indole-3-carboxamide]
6.63	7.51	CNC(=O)c1cn(C)c2c(C(C)C)cc(N3CCCc4cc(-c5cnn(C)c5)c(C(F)F)cc43)cc12 [Example 108, 5-(7-(difluoromethyl)-6-(1-methyl-1H-pyrazol-4-yl)-3,4-dihydroquinolin-1(2H)-yl)-7-isopropyl-N,1-dimethyl-1H-indole-3-carboxamide]
5.68	7.49	CC(=O)N1CCOc2ccc(N3CCCc4cc(-c5cnn(C)c5)c(C(F)F)cc43)cc2C1 [Example 112, 1-(7-(7-(difluoromethyl)-6-(1-methyl-1H-pyrazol-4-yl)-3,4-dihydroquinolin-1(2H)-yl)-2,3-dihydrobenzo[f][1,4]oxazepin-4(5H)-yl)ethanone]
6.80	7.85	CNC(=O)N1CCOc2ccc(N3CCCc4cc(-c5cnn(C)c5)c(C(F)F)cc43)cc2C1 [Example 113, 7-(7-(difluoromethyl)-6-(1-methyl-1H-pyrazol-4-yl)-3,4-dihydroquinolin-1(2H)-yl)-N-methyl-2,3-dihydrobenzo[f][1,4]oxazepine-4(5H)-carboxamide]
6.20	8.22	CNC(=O)c1ccc2cccc(N3CCCc4cc(-c5cnn(C)c5)c(C(F)F)cc43)c2n1 [Example 120, 7-(difluoromethyl)-N-methyl-6-(1-methyl-1H-pyrazol-4-yl)-3,4-dihydro-2H-[1,8′-biquinoline]-2′-carboxamide]
5.47	6.94	CNC(=O)Nc1cc(OC)cc(N2CCCc3cc(-c4cnn(C)c4)c(C(F)F)cc32)n1 [Example 123, 1-(6-(7-(difluoromethyl)-6-(1-methyl-1H-pyrazol-4-yl)-3,4-dihydroquinolin-1(2H)-yl)-4-methoxypyridin-2-yl)-3-methylurea]
